Laboratory results reported in PubChem BioAssay AID651642 (Sanford-Burnham Center for Chemical Genomics, 2012).

Legend:
[1] = test system: HL-1; experiment: cardiomyocyte survival under oxidative or metabolic stress – cell-based, panel, H9c2 and HL-1, H2O2, 2-deoxyglucose, ATP luminescence, SAR follow-up (AID 651642)
[2] = test system: H9c2; experiment: as above
[3] = H9c2/HL-1 cardiomyocyte 2-deoxyglucose damage, mean of runs, with 2-deoxyglucose, mean IC50 across panel
[4] = H9c2/HL-1 cardiomyocyte 2-deoxyglucose damage, run 1, with 2-deoxyglucose
[5] = H9c2/HL-1 cardiomyocyte 2-deoxyglucose damage, run 2, with 2-deoxyglucose
[6] = H9c2/HL-1 cardiomyocyte 2-deoxyglucose damage, run 3, with 2-deoxyglucose
[7] = H9c2/HL-1 cardiomyocyte 2-deoxyglucose damage, run 4, with 2-deoxyglucose
[8] = H9c2/HL-1 cardiomyocyte H2O2 oxidative damage, mean of runs, with H2O2, mean IC50 across panel
[9] = H9c2/HL-1 cardiomyocyte H2O2 oxidative damage, run 1, with H2O2
[10] = H9c2/HL-1 cardiomyocyte H2O2 oxidative damage, run 2, with H2O2
[11] = H9c2/HL-1 cardiomyocyte H2O2 oxidative damage, run 3, with H2O2
[12] = H9c2/HL-1 cardiomyocyte H2O2 oxidative damage, run 4, with H2O2

COc1ccc2c(c1OC)C(=O)N1c3ccccc3C(=O)N(Cc3cccc(F)c3)C21 (stereo not given)
IC50 [1, 3]: 6.54 µM
IC50 [1, 4]: 3.49 µM
IC50 [1, 5]: 4.29 µM
IC50 [1, 6]: 9.07 µM
IC50 [1, 7]: 9.32 µM
IC50 [1, 8]: > 79 µM
IC50 [1, 9]: > 79 µM
IC50 [1, 10]: > 79 µM
IC50 [1, 11]: > 79 µM
IC50 [1, 12]: > 79 µM
IC50 [2, 3]: > 79 µM
IC50 [2, 4]: > 79 µM
IC50 [2, 5]: > 79 µM
IC50 [2, 6]: > 79 µM
IC50 [2, 7]: > 79 µM
IC50 [2, 9]: 1.15 µM
IC50 [2, 10]: 1.56 µM
IC50 [2, 11]: > 79 µM
IC50 [2, 12]: > 79 µM

CCOC(=O)c1cccc(NC(=O)c2cc(-c3cc(OC)c(OC)c(OC)c3)nc3c(Cl)cccc23)c1
IC50 [1, 3]: > 79 µM
IC50 [1, 4]: > 79 µM
IC50 [1, 5]: > 79 µM
IC50 [1, 6]: > 79 µM
IC50 [1, 7]: > 79 µM
IC50 [1, 9]: > 79 µM
IC50 [1, 10]: 11.1 µM
IC50 [1, 11]: > 79 µM
IC50 [1, 12]: > 79 µM
IC50 [2, 3]: > 79 µM
IC50 [2, 4]: > 79 µM
IC50 [2, 5]: > 79 µM
IC50 [2, 6]: > 79 µM
IC50 [2, 7]: > 79 µM
IC50 [2, 9]: > 79 µM
IC50 [2, 10]: 30.3 µM
IC50 [2, 11]: > 79 µM
IC50 [2, 12]: > 79 µM

COc1cc(-c2cc(C(=O)Nc3cccc(C(=O)N4CCOCC4)c3)c3ccccc3n2)cc(OC)c1OC
IC50 [1, 3]: 19 µM
IC50 [1, 4]: 8.16 µM
IC50 [1, 5]: 11.2 µM
IC50 [1, 6]: 27.8 µM
IC50 [1, 7]: 28.6 µM
IC50 [1, 8]: 14.7 µM
IC50 [1, 9]: 12.9 µM
IC50 [1, 10]: 16.7 µM
IC50 [1, 11]: 10.7 µM
IC50 [1, 12]: 18.4 µM
IC50 [2, 4]: > 79 µM
IC50 [2, 5]: 60.5 µM
IC50 [2, 6]: > 79 µM
IC50 [2, 7]: > 79 µM
IC50 [2, 8]: 5.92 µM
IC50 [2, 9]: 6.19 µM
IC50 [2, 10]: 7.7 µM
IC50 [2, 11]: 4.73 µM
IC50 [2, 12]: 5.07 µM

COc1cccc(CNC(=O)CNC(=O)c2cc(-c3cc(OC)c(OC)c(OC)c3)nc3ccccc23)c1
IC50 [1, 3]: 15.2 µM
IC50 [1, 4]: 9.87 µM
IC50 [1, 5]: 10.8 µM
IC50 [1, 6]: 17.7 µM
IC50 [1, 7]: 22.6 µM
IC50 [1, 9]: > 79 µM
IC50 [1, 10]: 13.1 µM
IC50 [1, 11]: 6.25 µM
IC50 [1, 12]: 7.97 µM
IC50 [2, 4]: 38.6 µM
IC50 [2, 5]: 40.8 µM
IC50 [2, 6]: > 79 µM
IC50 [2, 7]: > 79 µM
IC50 [2, 8]: 5.76 µM
IC50 [2, 9]: 5.74 µM
IC50 [2, 10]: 7.73 µM
IC50 [2, 11]: 4.38 µM
IC50 [2, 12]: 5.17 µM

CCOC(=O)c1cccc(NC(=O)c2cc(-c3cc(OC)c(OC)c(OC)c3)nc3ccccc23)c1
IC50 [1, 4]: 3.23 µM
IC50 [1, 5]: 3.46 µM
IC50 [1, 6]: > 79 µM
IC50 [1, 7]: > 79 µM
IC50 [1, 8]: 4.62 µM
IC50 [1, 9]: 3.4 µM
IC50 [1, 10]: 4.59 µM
IC50 [1, 11]: 3.78 µM
IC50 [1, 12]: 6.72 µM
IC50 [2, 3]: > 79 µM
IC50 [2, 4]: > 79 µM
IC50 [2, 5]: > 79 µM
IC50 [2, 6]: > 79 µM
IC50 [2, 7]: > 79 µM
IC50 [2, 9]: 3.9 µM
IC50 [2, 10]: 4.44 µM
IC50 [2, 11]: > 79 µM
IC50 [2, 12]: > 79 µM

COc1cc(-c2cc(C(=O)Nc3cccc(C(C)=O)c3)c3cc(Br)ccc3n2)cc(OC)c1OC
IC50 [1, 3]: > 79 µM
IC50 [1, 4]: > 79 µM
IC50 [1, 5]: > 79 µM
IC50 [1, 6]: > 79 µM
IC50 [1, 7]: > 79 µM
IC50 [1, 9]: > 79 µM
IC50 [1, 10]: 9.89 µM
IC50 [1, 11]: 2.56 µM
IC50 [1, 12]: 2.83 µM
IC50 [2, 3]: > 79 µM
IC50 [2, 4]: > 79 µM
IC50 [2, 5]: > 79 µM
IC50 [2, 6]: > 79 µM
IC50 [2, 7]: > 79 µM
IC50 [2, 9]: > 79 µM
IC50 [2, 10]: 10.4 µM
IC50 [2, 11]: > 79 µM
IC50 [2, 12]: > 79 µM
